# From PubChem BioAssay (NCI)
#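 Exposure lasted 48 hours, with cells grown in 96-well plates and compounds tested at five concentrations. The concentration for 50% growth inhibition is given as GI50. TGI marks complete inhibition of growth.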
# Experiments:
# Test in all cases: NCI tumour cell line growth inhibition, 48 h
# SNB-75 CNS = system: SNB-75 CNS
# OVCAR-8 ovarian = system: OVCAR-8 ovarian
# BT-549 breast = system: BT-549 breast
# 786-0 renal = system: 786-0 renal
# HOP-62 NSCLC = system: HOP-62 NSCLC
# UO-31 renal = system: UO-31 renal
# M14 melanoma = system: M14 melanoma
# SK-MEL-2 melanoma = system: SK-MEL-2 melanoma
# MDA-MB-231 breast = system: MDA-MB-231 breast
# MCF7 breast = system: MCF7 breast
# SF-268 CNS = system: SF-268 CNS
# HS 578T breast = system: HS 578T breast
# DU-145 prostate = system: DU-145 prostate
# NCI-H23 lung = system: NCI-H23 lung
# RXF 393 renal = system: RXF 393 renal
# LOX IMVI melanoma = system: LOX IMVI melanoma
# MDA-MB-435 = system: MDA-MB-435
# NCI-H226 lung = system: NCI-H226 lung
# OVCAR-5 ovarian = system: OVCAR-5 ovarian
# SNB-19 CNS = system: SNB-19 CNS
# NCI/ADR-RES ovarian = system: NCI/ADR-RES ovarian
# SR leukemia = system: SR leukemia
# CAKI-1 renal = system: CAKI-1 renal
# OVCAR-3 ovarian = system: OVCAR-3 ovarian
# SK-MEL-5 melanoma = system: SK-MEL-5 melanoma
# COLO 205 colon = system: COLO 205 colon
# HOP-92 NSCLC = system: HOP-92 NSCLC
# U251 CNS = system: U251 CNS
# PC-3 prostate = system: PC-3 prostate
# KM12 colon = system: KM12 colon
# MALME-3M melanoma = system: MALME-3M melanoma
# A498 renal = system: A498 renal
# IGROV1 ovarian = system: IGROV1 ovarian
# HCT-116 colon = system: HCT-116 colon
# T-47D breast = system: T-47D breast
# HCC-2998 colon = system: HCC-2998 colon
# MOLT-4 leukemia = system: MOLT-4 leukemia
# ACHN renal = system: ACHN renal
# OVCAR-4 ovarian = system: OVCAR-4 ovarian
# HL-60(TB) leukemia = system: HL-60(TB) leukemia
# SN12C renal = system: SN12C renal
# TK-10 renal = system: TK-10 renal
# SW-620 colon = system: SW-620 colon
# SF-539 CNS = system: SF-539 CNS
# UACC-62 melanoma = system: UACC-62 melanoma
# K-562 leukemia = system: K-562 leukemia
# RPMI-8226 leukemia = system: RPMI-8226 leukemia
# NCI-H460 lung = system: NCI-H460 lung
# SK-MEL-28 melanoma = system: SK-MEL-28 melanoma
# HCT-15 colon = system: HCT-15 colon
# SK-OV-3 ovarian = system: SK-OV-3 ovarian
# SF-295 CNS = system: SF-295 CNS
# HT29 colon = system: HT29 colon
smiles,measurement,setting,value
CSC1=NC(=Nc2c(C)cccc2C)C2(CCC(C(C)(C)C)CC2)N1c1ccc(Cl)cc1 (stereo unspecified),GI50,SNB-75 CNS,> 100 µM
same,TGI,SNB-75 CNS,> 100 µM
same,GI50,OVCAR-8 ovarian,15.1 µM
same,TGI,OVCAR-8 ovarian,> 100 µM
same,GI50,BT-549 breast,54.1 µM
same,TGI,BT-549 breast,> 100 µM
same,GI50,786-0 renal,68.7 µM
same,TGI,786-0 renal,> 100 µM
same,GI50,HOP-62 NSCLC,> 100 µM
same,TGI,HOP-62 NSCLC,> 100 µM
same,GI50,UO-31 renal,25.2 µM
same,TGI,UO-31 renal,> 100 µM
same,GI50,M14 melanoma,68.2 µM
same,TGI,M14 melanoma,> 100 µM
same,GI50,SK-MEL-2 melanoma,> 100 µM
same,TGI,SK-MEL-2 melanoma,> 100 µM
same,GI50,MDA-MB-231 breast,> 100 µM
same,TGI,MDA-MB-231 breast,> 100 µM
same,GI50,MCF7 breast,26.5 µM
same,TGI,MCF7 breast,> 100 µM
same,GI50,SF-268 CNS,32.5 µM
same,TGI,SF-268 CNS,> 100 µM
same,GI50,HS 578T breast,95.8 µM
same,TGI,HS 578T breast,> 100 µM
same,GI50,DU-145 prostate,> 100 µM
same,TGI,DU-145 prostate,> 100 µM
same,GI50,NCI-H23 lung,24.7 µM
same,TGI,NCI-H23 lung,> 100 µM
same,GI50,RXF 393 renal,52.4 µM
same,TGI,RXF 393 renal,> 100 µM
same,GI50,LOX IMVI melanoma,6.66 µM
same,TGI,LOX IMVI melanoma,> 100 µM
same,GI50,MDA-MB-435,30.9 µM
same,TGI,MDA-MB-435,> 100 µM
same,GI50,NCI-H226 lung,8.93 µM
same,TGI,NCI-H226 lung,> 100 µM
same,GI50,OVCAR-5 ovarian,> 100 µM
same,TGI,OVCAR-5 ovarian,> 100 µM
same,GI50,SNB-19 CNS,> 100 µM
same,TGI,SNB-19 CNS,> 100 µM
same,GI50,NCI/ADR-RES ovarian,77.7 µM
same,TGI,NCI/ADR-RES ovarian,> 100 µM
same,GI50,SR leukemia,4.21 µM
same,TGI,SR leukemia,> 100 µM
same,GI50,CAKI-1 renal,6.59 µM
same,TGI,CAKI-1 renal,> 100 µM
same,GI50,OVCAR-3 ovarian,54.1 µM
same,TGI,OVCAR-3 ovarian,> 100 µM
same,GI50,SK-MEL-5 melanoma,9.32 µM
same,TGI,SK-MEL-5 melanoma,> 100 µM
same,GI50,COLO 205 colon,46.4 µM
same,TGI,COLO 205 colon,> 100 µM
same,GI50,HOP-92 NSCLC,67.8 µM
same,TGI,HOP-92 NSCLC,> 100 µM
same,GI50,U251 CNS,8.04 µM
same,TGI,U251 CNS,> 100 µM
same,GI50,PC-3 prostate,6.05 µM
same,TGI,PC-3 prostate,> 100 µM
same,GI50,KM12 colon,20.9 µM
same,TGI,KM12 colon,> 100 µM
same,GI50,MALME-3M melanoma,42.6 µM
same,TGI,MALME-3M melanoma,> 100 µM
same,GI50,A498 renal,> 100 µM
same,TGI,A498 renal,> 100 µM
same,GI50,IGROV1 ovarian,63.5 µM
same,TGI,IGROV1 ovarian,> 100 µM
same,GI50,HCT-116 colon,4.87 µM
same,TGI,HCT-116 colon,> 100 µM
same,GI50,T-47D breast,20.8 µM
same,TGI,T-47D breast,> 100 µM
same,GI50,HCC-2998 colon,92.9 µM
same,TGI,HCC-2998 colon,> 100 µM
same,GI50,MOLT-4 leukemia,6.82 µM
same,TGI,MOLT-4 leukemia,> 100 µM
same,GI50,ACHN renal,8.4 µM
same,TGI,ACHN renal,> 100 µM
same,GI50,OVCAR-4 ovarian,> 100 µM
same,TGI,OVCAR-4 ovarian,> 100 µM
same,GI50,HL-60(TB) leukemia,7.94 µM
same,TGI,HL-60(TB) leukemia,> 100 µM
same,GI50,SN12C renal,40.8 µM
same,TGI,SN12C renal,> 100 µM
same,GI50,TK-10 renal,39.8 µM
same,TGI,TK-10 renal,> 100 µM
same,GI50,SW-620 colon,27 µM
same,TGI,SW-620 colon,> 100 µM
same,GI50,SF-539 CNS,71.7 µM
same,TGI,SF-539 CNS,> 100 µM
same,GI50,UACC-62 melanoma,45.3 µM
same,TGI,UACC-62 melanoma,> 100 µM
same,GI50,K-562 leukemia,4.76 µM
same,TGI,K-562 leukemia,> 100 µM
same,GI50,RPMI-8226 leukemia,6.35 µM
same,TGI,RPMI-8226 leukemia,> 100 µM
same,GI50,NCI-H460 lung,4.68 µM
same,TGI,NCI-H460 lung,> 100 µM
same,GI50,SK-MEL-28 melanoma,99.6 µM
same,TGI,SK-MEL-28 melanoma,> 100 µM
same,GI50,HCT-15 colon,7.42 µM
same,TGI,HCT-15 colon,> 100 µM
same,GI50,SK-OV-3 ovarian,> 100 µM
same,TGI,SK-OV-3 ovarian,> 100 µM
same,GI50,SF-295 CNS,29.9 µM
same,TGI,SF-295 CNS,> 100 µM
same,GI50,HT29 colon,38 µM
same,TGI,HT29 colon,> 100 µM
